{"source": "patent US12662451B2", "about": "“Chemical compounds and uses thereof” (GLAXOSMITHKLINE INTELLECTUAL PROPERTY (NO.4) LIMITED, priority 2023, dated 2026)", "note": "Counter-ions that a name gives are not always drawn."}
{"molecular_target": "T1, recombinant full-length WRN protein (1-1432) (Homo sapiens, UniProt Q14191)", "T1 construct": "recombinant full-length WRN protein (1-1432)", "T1 sequence (Q14191 whole entry)": "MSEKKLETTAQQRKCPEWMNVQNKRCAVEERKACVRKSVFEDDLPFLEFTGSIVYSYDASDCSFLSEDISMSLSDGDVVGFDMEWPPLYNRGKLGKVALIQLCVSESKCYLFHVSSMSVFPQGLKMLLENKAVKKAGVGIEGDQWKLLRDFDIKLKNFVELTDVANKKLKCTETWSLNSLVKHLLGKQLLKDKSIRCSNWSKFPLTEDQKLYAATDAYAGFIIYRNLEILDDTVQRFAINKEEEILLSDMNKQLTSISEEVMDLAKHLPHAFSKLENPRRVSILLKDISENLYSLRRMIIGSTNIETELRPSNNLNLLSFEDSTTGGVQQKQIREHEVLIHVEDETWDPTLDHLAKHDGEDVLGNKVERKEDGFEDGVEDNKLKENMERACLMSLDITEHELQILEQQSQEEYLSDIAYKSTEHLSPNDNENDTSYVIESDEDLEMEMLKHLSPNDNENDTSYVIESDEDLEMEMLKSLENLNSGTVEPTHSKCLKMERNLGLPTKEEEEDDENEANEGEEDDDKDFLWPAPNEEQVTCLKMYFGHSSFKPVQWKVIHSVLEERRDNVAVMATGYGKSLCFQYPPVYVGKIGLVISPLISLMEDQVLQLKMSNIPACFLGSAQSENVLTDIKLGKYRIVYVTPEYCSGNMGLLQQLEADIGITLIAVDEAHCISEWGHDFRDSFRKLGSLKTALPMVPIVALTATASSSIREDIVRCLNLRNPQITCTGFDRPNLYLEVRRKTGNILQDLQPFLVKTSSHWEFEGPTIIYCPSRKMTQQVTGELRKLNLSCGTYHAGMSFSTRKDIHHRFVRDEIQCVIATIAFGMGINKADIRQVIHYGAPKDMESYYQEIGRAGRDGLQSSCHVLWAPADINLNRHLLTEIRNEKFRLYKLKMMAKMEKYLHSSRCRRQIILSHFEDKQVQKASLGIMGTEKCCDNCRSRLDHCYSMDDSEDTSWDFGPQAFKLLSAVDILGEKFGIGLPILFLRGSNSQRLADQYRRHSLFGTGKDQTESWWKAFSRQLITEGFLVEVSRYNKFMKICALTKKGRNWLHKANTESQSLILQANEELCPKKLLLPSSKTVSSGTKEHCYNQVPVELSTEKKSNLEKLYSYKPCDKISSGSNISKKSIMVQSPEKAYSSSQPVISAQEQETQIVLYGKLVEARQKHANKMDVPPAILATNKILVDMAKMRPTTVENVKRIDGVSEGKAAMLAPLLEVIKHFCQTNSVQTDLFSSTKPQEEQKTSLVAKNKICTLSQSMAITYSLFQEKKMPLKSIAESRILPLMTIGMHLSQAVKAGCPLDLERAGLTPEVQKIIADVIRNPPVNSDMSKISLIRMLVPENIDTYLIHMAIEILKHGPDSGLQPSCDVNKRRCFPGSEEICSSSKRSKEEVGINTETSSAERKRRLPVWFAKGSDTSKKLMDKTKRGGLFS", "test": "WRN unwinding activity, fluorogenic 384-well assay (Example A)", "format": "biochemical", "settings": "WRN unwinding activity, 4 hr; Table 2; read-out: 4 hr UNW pIC50 (converted)", "experimental": "Functional WRN unwinding activity can be measured using a fluorogenic plate based 384 well assay configured to measure the separation of labeled double stranded DNA substrate. Compounds were dosed out in neat DMSO with a 1:3 serial dilution scheme. 100 nL of compound was stamped into Greiner low volume black assay plates (Greiner Cat #784076) using the Echo Acoustic Dispenser to generate assay ready plates. All solutions were prepared in assay buffer (25 mM TRIS (pH8.0), 5 mM NaCl, 2 mM MgCl2, 1 mM DTT, 0.05% BSA) for this 10 μL low volume reaction. To prepare the solutions, a 2×WRN Enzyme cocktail was made containing 200 pM of recombinant full-length WRN protein (1-1432). A 2× Substrate cocktail was made to consist of both 200 μM ATP (any ultrapure ATP sample) and 12 nM of the fluorescent quenched labeled double stranded DNA oligomer (IDT Custom synthesis; 5′-5IABkFQ (SEQ ID NO. 1)/GCACTGGCCGTCGTTTTACGGTCGTGACT-3′ (SEQ ID NO. 2): 5′-TTTTTTACTTAACGACGGCCAGTGC (SEQ ID NO. 3)/36-TAMTSP/-3′ (SEQ ID NO. 4)). To start the reaction, 5 μL of assay buffer was added to a single column to serve as the low control. Following this, 5 μL of 2×WRN Enzyme was added in all wells except the buffer low control wells. The reaction plate was covered and incubated at ambient temperature for 4 hours to allow for time dependent inhibition if it existed. After 4 hours, the addition of 5 μL of 2×-ATP/DNA substrate cocktail was added across all wells of the assay plate. This initiated the reaction, as the plate was incubated at ambient temperature for 60 minutes for the unwinding reaction to occur. A 10 mM EDTA solution was prepared and added at 5 μL across the entire plate after 60 minutes to quench the samples for an endpoint measurement. Fluorescent intensity was measured using excitation and emission wavelengths of 525 nm and 598 nm, respectively. High florescent intensity (DMSO with buffer) represents full inhibition of unwinding activity and low florescent intensity (DMSO with enzyme) represents no inhibition of unwinding activity. The potency of the compounds was determined using a four-parameter inhibition model to generate pIC50, Hill Slope, maximum inhibition (see Table 2).", "units": {"IC50": "nM"}}
{"smiles": "COc1cscc1-c1ccc([C@H]2CCC[C@@H](C(=O)Nc3ccc(C(F)(F)F)cc3F)[C@@H]2C(=O)O)cc1", "note": "[Example 42, (1R,2R,6S)-2-((2-fluoro-4-(trifluoromethyl)phenyl)carbamoyl)-6-(4-(4-methoxythiophen-3-yl)phenyl) cyclohexane-1-carboxylic acid]", "IC50": 1000}
{"smiles": "Cc1nc2cc(S(=O)(=O)N(C)c3ccc([C@H]4CCC[C@@H](C(=O)NC56CC(C)(C5)C6)[C@@H]4C(=O)O)cc3)ccc2n1C", "note": "(racemic) [Example 178]", "IC50": 5010}
{"smiles": "Cc1nc2cc(S(=O)(=O)N(C)c3ccc([C@H]4CCC[C@@H](C(=O)N[C@H]5CC[C@@H](C6CCC6)CC5)[C@@H]4C(=O)O)cc3)ccc2n1C", "note": "[Example 189, (1R,2R,6S)-2-(((1s,4S)-4-cyclobutylcyclohexyl)carbamoyl)-6-(4-((N,1,2-trimethyl-1H-benzo[d]imidazole)-5-sulfonamido)phenyl)cyclohexane-1-carboxylic acid]", "IC50": 398}
{"smiles": "O=C(Cc1cccc(-c2ccc([C@H]3CCC[C@@H](C(=O)Nc4ccc(C(F)(F)F)cc4F)[C@@H]3C(=O)O)cc2)c1)NC1CC1", "note": "[Example 20, (1R,2S,6R)-2-(3′-(2-(cyclopropylamino)-2-oxoethyl)-[1,1′-biphenyl]-4-yl)-6-((2-fluoro-4-(trifluoromethyl)phenyl)carbamoyl)cyclohexane-1-carboxylic acid]", "IC50": 6310}
{"smiles": "Cn1cc(-c2ccc([C@H]3CCC[C@@H](C(=O)Nc4ccc(C(F)(F)F)cc4F)[C@@H]3C(=O)O)cc2)cn1", "note": "[Example 12, (1R,2R,6S)-2-((2-fluoro-4-(trifluoromethyl)phenyl)carbamoyl)-6-(4-(1-methyl-1H-pyrazol-4-yl)phenyl)cyclohexane-1-carboxylic acid]", "IC50": 63.1}
{"smiles": "Cc1nc2cc(S(=O)(=O)N(C)c3ccc([C@H]4CCC[C@@H](C(=O)N[C@]56CC[C@H](CC5)C6)[C@@H]4C(=O)O)cc3)ccc2n1C", "note": "[Example 193, (1R,2R,6S)-2-(((1r,4R)-bicyclo[2.2.1]heptan-1-yl)carbamoyl)-6-(4-((N,1,2-trimethyl-1H-benzo[d]imidazole)-5-sulfonamido)phenyl)cyclohexane-1-carboxylic acid]", "IC50": 20000}
{"smiles": "Cc1nc2cc(S(=O)(=O)N(C)c3ccc([C@H]4C[C@H](N(C)C)C[C@@H](C(=O)Nc5ccc(C(F)(F)F)cc5F)[C@@H]4C(=O)O)cc3)ccc2n1C", "note": "(relative stereo) [Example 253, rel-(1R,2R,4S,6S)-4-(dimethylamino)-2-((2-fluoro-4-(trifluoromethyl)phenyl)carbamoyl)-6-(4-((N,1,2-trimethyl-1H-benzo[d]imidazole)-5-sulfonamido)phenyl)cyclohexane-1-carboxylic acid]", "IC50": 2}
{"smiles": "O=C(O)[C@@H]1[C@@H](c2ccc(C3=COCCC3)cc2)CCC[C@H]1C(=O)Nc1ccc(C(F)(F)F)cc1F", "note": "[Example 56, (1R,2S,6R)—2-(4-(3,4-dihydro-2H-pyran-5-yl)phenyl)-6-((2-fluoro-4-(trifluoromethyl)phenyl)carbamoyl)cyclohexane-1-carboxylic acid]", "IC50": 1.58}
{"smiles": "CN(c1ccc([C@H]2CCC[C@@H](C(=O)Nc3ccc(C(F)(F)F)cc3F)[C@@H]2C(=O)O)cc1)S(=O)(=O)c1nnc[nH]1", "note": "[Example 96, (1R,2R,6S)-2-((2-fluoro-4-(trifluoromethyl)phenyl)carbamoyl)-6-(4-(N-methyl-4H-1,2,4-triazole-3-sulfonamido)phenyl)cyclohexane-1-carboxylic acid]", "IC50": 0.501}
{"smiles": "COC(=O)c1sccc1-c1ccc([C@H]2CCC[C@@H](C(=O)Nc3ccc(C(F)(F)F)cc3F)[C@@H]2C(=O)O)cc1", "note": "[Example 33, (1R,2R,6S)-2-((2-fluoro-4-(trifluoromethyl)phenyl)carbamoyl)-6-(4-(2-(methoxycarbonyl)thiophen-3-yl)phenyl)cyclohexane-1-carboxylic acid]", "IC50": 126}
{"smiles": "Cc1nc2cc(S(=O)(=O)N(C)c3ccc([C@H]4CCC[C@@H](C(=O)Nc5ccc(C(F)(F)F)cn5)[C@@H]4C(=O)O)cc3)ccc2n1C", "note": "(single isomer, unassigned) [Example 169]", "IC50": 7940}
{"smiles": "Cc1nc2cc(S(=O)(=O)N(C)c3ccc([C@H]4CCC[C@@H](C(=O)NC56CC(C(F)(F)F)(C5)C6)[C@@H]4C(=O)O)cc3)ccc2n1C", "note": "[Example 185, (1R,2R,6S)-2-((3-(trifluoromethyl)bicyclo[1.1.1]pentan-1-yl)carbamoyl)-6-(4-((N,1,2-trimethyl-1H-benzo[d]imidazole)-5-sulfonamido)phenyl)cyclohexane-1-carboxylic acid, formic acid salt]", "IC50": 63.1}
{"smiles": "O=C(O)[C@@H]1[C@@H](c2ccc(C3CCCCC3)cc2)CCC[C@H]1C(=O)Nc1ccc(C(F)(F)F)cc1F", "note": "[Example 62, (1R,2S,6R)-2-(4-cyclohexylphenyl)-6-((2-fluoro-4-(trifluoromethyl)phenyl)carbamoyl)cyclohexane-1-carboxylic acid]", "IC50": 126}
{"smiles": "Cc1nc2cc(S(=O)(=O)N(C)c3ccc([C@@H]4C[C@H](OCC5CCC5)C[C@H](C(=O)Nc5ccc(C(F)(F)F)cc5F)[C@H]4C(=O)O)cc3)ccc2n1C", "note": "(stereo in doubt) [Example 155, rel-(1R,2R,4R,6S)-4-(cyclobutylmethoxy)-2-((2-fluoro-4-(trifluoromethyl)phenyl)carbamoyl)-6-(4-((N,1,2-trimethyl-1H-benzo[d]imidazole)-5-sulfonamido)phenyl)cyclohexane-1-carboxylic acid]", "IC50": 794}
{"smiles": "CCCO[C@@H]1C[C@H](C(=O)Nc2ccc(C(F)(F)F)cc2F)[C@@H](C(=O)O)[C@H](c2ccc(N(C)S(=O)(=O)c3ccc4c(c3)nc(C)n4C)cc2)C1", "note": "(stereo in doubt) [Example 150, rel-(1R,2R,4R,6S)-2-((2-fluoro-4-(trifluoromethyl)phenyl)carbamoyl)-4-propoxy-6-(4-((N,1,2-trimethyl-1H-benzo[d]imidazole)-5-sulfonamido)phenyl)cyclohexane-1-carboxylic acid]", "IC50": 3980}
{"smiles": "O=C(O)[C@@H]1[C@@H](c2ccc(-c3ncnc4sccc34)cc2)CCC[C@H]1C(=O)Nc1ccc(C(F)(F)F)cc1F", "note": "[Example 34, (1R,2R,6S)-2-((2-fluoro-4-(trifluoromethyl)phenyl)carbamoyl)-6-(4-(thieno[2,3-d]pyrimidin-4-yl)phenyl)cyclohexane-1-carboxylic acid]", "IC50": 2510}
{"smiles": "COC(=O)c1cncc(-c2ccc([C@H]3CCC[C@@H](C(=O)Nc4ccc(C(F)(F)F)cc4F)[C@@H]3C(=O)O)cc2)c1", "note": "[Example 26, (1R,2R,6S)-2-((2-fluoro-4-(trifluoromethyl)phenyl)carbamoyl)-6-(4-(5-(methoxycarbonyl)pyridin-3-yl)phenyl)cyclohexane-1-carboxylic acid]", "IC50": 10000}
{"smiles": "Cc1nc2cc(S(=O)(=O)N(C)c3ccc([C@H]4CCC[C@@H](C(=O)Nc5ccc(C(C)C)cc5)[C@@H]4C(=O)O)cc3)ccc2n1C", "note": "(single isomer, unassigned) [Example 79]", "IC50": 501}
{"test_system": "SW48 human colorectal cancer cells (MSI-H cancer cells)", "test": "SW48 cell viability, CellTiter-Glo, 120 hours (Example B)", "settings": "Homo sapiens, SW48, 120 h, read-out: SW48 pCC50, SW48 cell viability, 120 hours incubation (converted); Table 2", "units": {"CC50": "nM"}}
{"smiles": "Cc1nc2cc(S(=O)(=O)N(C)c3ccc([C@@H]4C[C@@H]5COC[C@@H]5[C@H](C(=O)Nc5ccc(C(F)(F)F)cc5F)[C@H]4C(=O)O)cc3)ccc2n1C", "note": "(stereo in doubt) [Example 391, rel-(3aR,4R,5R,6S,7aR)-4-((2-fluoro-4-(trifluoromethyl)phenyl)carbamoyl)-6-(4-((N,1,2-trimethyl-1H-benzo[d]imidazole)-5-sulfonamido)phenyl)octahydroisobenzofuran-5-carboxylic acid]", "CC50": 20000}
{"smiles": "Cc1nc2cc(S(=O)(=O)N(C)c3ccc([C@H]4CN(CC(F)(F)F)C[C@@H](C(=O)Nc5ccc(C(F)(F)F)cc5F)[C@@H]4C(=O)O)cc3)ccc2n1C", "note": "(relative stereo) [Example 358, rel-(3R,4S,5R)-3-((2-fluoro-4-(trifluoromethyl)phenyl)carbamoyl)-1-(2,2,2-trifluoroethyl)-5-(4-((N,1,2-trimethyl-1H-benzo[d]imidazole)-5-sulfonamido)phenyl)piperidine-4-carboxylic acid]", "CC50": 631}
{"smiles": "Cc1nc2cc(S(=O)(=O)N(C)c3ccc([C@H]4C[C@H](N5CCC[C@H](F)C5)C[C@@H](C(=O)Nc5ccc(C(F)(F)F)cc5F)[C@@H]4C(=O)O)cc3)ccc2n1C", "note": "(stereo in doubt) [Example 351, rel-(1R*,2R*,4S*,6S*)-2-((2-fluoro-4-(trifluoromethyl)phenyl)carbamoyl)-4-((S)-3-fluoropiperidin-1-yl)-6-(4-((N,1,2-trimethyl-1H-benzo[d]imidazole)-5-sulfonamido)phenyl)cyclohexane-1-carboxylic acid]", "CC50": 10000}
